# From US20150218534A1, “MODIFIED DNA POLYMERASE” (TOYOBO CO., LTD., priority 2012, published 2015)
# B1: KOD Y7A: modified DNA polymerase derived from Thermococcus kodakaraensis KOD1 with Y7A (protein, listed as Thermococcus kodakaraensis)
# chain: MILDTDAITEDGKPVIRIFKKENGEFKIEYDRTFEPYFYALLKDDSAIEEVKKITAERHGTVVTVKRVEKVQKKFLGRPVEVWKLYFTHPQDVPAIRDKIREHPAVIDIYEYDIPFAKRYLIDKGLVPMEGDEELKMLAFDIETLYHEGEEFAEGPILMISYADEEGARVITWKNVDLPYVDVVSTEREMIKRFLRVVKEKDPDVLITYNGDNFDFAYLKKRCEKLGINFALGRDGSEPKIQRMGDRFAVEVKGRIHFDLYPVIRRTINLPTYTLEAVYEAVFGQPKEKVYAEEITTAWETGENLERVARYSMEDAKVTYELGKEFLPMEAQLSRLIGQSLWDVSRSSTGNLVEWFLLRKAYERNELAPNKPDEKELARRRQSYEGGYVKEPERGLWENIVYLDFRSLYPSIIITHNVSPDTLNREGCKEYDVAPQVGHRFCKDFPGFIPSLLGDLLEERQKIKKKMKATIDPIERKLLDYRQRAIKILANSYYGYYGYARARWYCKECAESVTAWGREYITMTIKEIEEKYGFKVIYSDTDGFFATIPGADAETVKKKAMEFLKYINAKLPGALELEYEGFYKRGFFVTKKKYAVIDEEGKITTRGLEIVRRDWSEIAKETQARVLEALLKDGDVEKAVRIVKEVTEKLSKYEVPPEKLVIHEQITRDLKDYKATGPHVAVAKRLAARGVKIRPGTVISYIVLKGSGRIGDRAIPFDEFDPTKHKYDAEYYIENQVLPAVERILRAFGYRKEDLRYQKTRQVGLSAWLKPKGT
# B2: KOD P36H: modified KOD DNA polymerase with P36H (protein, listed as Thermococcus kodakaraensis)
# chain: MILDTDYITEDGKPVIRIFKKENGEFKIEYDRTFEHYFYALLKDDSAIEEVKKITAERHGTVVTVKRVEKVQKKFLGRPVEVWKLYFTHPQDVPAIRDKIREHPAVIDIYEYDIPFAKRYLIDKGLVPMEGDEELKMLAFDIETLYHEGEEFAEGPILMISYADEEGARVITWKNVDLPYVDVVSTEREMIKRFLRVVKEKDPDVLITYNGDNFDFAYLKKRCEKLGINFALGRDGSEPKIQRMGDRFAVEVKGRIHFDLYPVIRRTINLPTYTLEAVYEAVFGQPKEKVYAEEITTAWETGENLERVARYSMEDAKVTYELGKEFLPMEAQLSRLIGQSLWDVSRSSTGNLVEWFLLRKAYERNELAPNKPDEKELARRRQSYEGGYVKEPERGLWENIVYLDFRSLYPSIIITHNVSPDTLNREGCKEYDVAPQVGHRFCKDFPGFIPSLLGDLLEERQKIKKKMKATIDPIERKLLDYRQRAIKILANSYYGYYGYARARWYCKECAESVTAWGREYITMTIKEIEEKYGFKVIYSDTDGFFATIPGADAETVKKKAMEFLKYINAKLPGALELEYEGFYKRGFFVTKKKYAVIDEEGKITTRGLEIVRRDWSEIAKETQARVLEALLKDGDVEKAVRIVKEVTEKLSKYEVPPEKLVIHEQITRDLKDYKATGPHVAVAKRLAARGVKIRPGTVISYIVLKGSGRIGDRAIPFDEFDPTKHKYDAEYYIENQVLPAVERILRAFGYRKEDLRYQKTRQVGLSAWLKPKGT
# System: human genomic DNA (about 1.3 kb) with dUTP added
# Experiment: Evaluation of uracil (dUTP) sensitivity by PCR with dUTP added to the reaction
# Type: biochemical
# Conditions: for Evaluation of dUTP resisitance on a 11-point scale: closer to 0 = stronger sensitivity to dUTP, closer to 10 = lower sensitivity, summary of Examples 1 to 3; for dUTP resistance: dUTP added to 0.5, 5, 50, 100, 200 μM, about 1.3 kb, 30 cycles, 1 U enzyme; for PCR products on addition of dUTP: some amount of dUTP added
# How it was run: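 Uracil sensitivity is judged by whether a roughly 1.3 kb band still appears on ethidium bromide-stained agarose gel. Tolerated dUTP was tested at final 0.5 to 200 μM (0.5, 5, 50, 100, 200 μM), using 10 ng human genomic DNA, 1 U enzyme, 0.2 mM dNTPs and 1.5 mM MgSO4 in KOD-Plus-Ver. 2 buffer. Cycling: 94° C for 30 s, then 30 cycles of 98° C/65° C/68° C.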
Molecule,Evaluation of dUTP resisitance on a 11-point scale,dUTP resistance,PCR products on addition of dUTP
KOD I142R/P36R: KOD I142R (exo(−)) mutant with P36R,8,>200 µM,
KOD D141A/E143A/V93K: KOD D141A/E143A (exo(−)) mutant with V93K,8,>200 µM,
KOD N210D/Y7A/V93K: KOD N210D (exo(−)) mutant with Y7A and V93K,10,>200 µM,
KOD N210D/P115Δ: KOD N210D (exo(−)) mutant lacking P115,0,0 µM,
KOD H147E/V93K: KOD H147E (exo(+)) mutant with V93K,6,>200 µM,
KOD N210D/P36H: KOD N210D (exo(−)) mutant with P36H,8,>200 µM,
KOD D141A/E143A/Y7A/V93K: KOD D141A/E143A (exo(−)) mutant with Y7A and V93K,10,>200 µM,
KOD Y7A/P115Δ: modified KOD DNA polymerase with Y7A and lacking P115,0,0 µM,
KOD N210D/V93K: KOD N210D (exo(−)) mutant with V93K,8,>200 µM,
KOD H147E/Y7A/P36R: KOD H147E (exo(+)) mutant with Y7A and P36R,8,>200 µM,
KOD P115Δ: modified KOD DNA polymerase lacking P115,0,0 µM,
KOD H147E/Y7A/V93K: KOD H147E (exo(+)) mutant with Y7A and V93K,8,>200 µM,
KOD I142R/Y7A/P36R: KOD I142R (exo(−)) mutant with Y7A and P36R,8,>200 µM,
KOD H147E/Y7A/P36H: KOD H147E (exo(+)) mutant with Y7A and P36H,8,>200 µM,
KOD Y7A/P36R: modified KOD DNA polymerase with Y7A and P36R,7,>200 µM,
KOD N210D/V93Q: KOD N210D (exo(−)) mutant with V93Q,6,>200 µM,
KOD D141A/E143A/Y7A: KOD D141A/E143A (exo(−)) mutant with Y7A,2,5 µM,
KOD D141A/E143A/Y7A/P36R: KOD D141A/E143A (exo(−)) mutant with Y7A and P36R,10,>200 µM,
KOD H147E/P36R: KOD H147E (exo(+)) mutant with P36R,6,>200 µM,
KOD D141A/E143A/P36R: KOD D141A/E143A (exo(−)) mutant with P36R,8,>200 µM,
KOD H147E/Y7A/P115Δ: KOD H147E (exo(+)) mutant with Y7A and lacking P115,0,0 µM,
KOD H147E/P36H: KOD H147E (exo(+)) mutant with P36H,6,>200 µM,

Molecule,Evaluation of dUTP resisitance on a 11-point scale,dUTP resistance,PCR products on addition of dUTP
KOD I142R/Y7A/P36H: KOD I142R (exo(−)) mutant with Y7A and P36H,8,>200 µM,
KOD H147E/V93R: KOD H147E (exo(+)) mutant with V93R,6,>200 µM,
KOD D141A/E143A/P36H: KOD D141A/E143A (exo(−)) mutant with P36H,8,>200 µM,
KOD H147E/P36R/V93K: KOD H147E (exo(+)) mutant with P36R and V93K,0,0 µM,
KOD P36R/V93K: modified KOD DNA polymerase with P36R and V93K,0,0 µM,
KOD I142R/Y7A/V93K: KOD I142R (exo(−)) mutant with Y7A and V93K,10,>200 µM,
KOD H147E/P115Δ: KOD H147E (exo(+)) mutant lacking P115,0,0 µM,
KOD N210D/Y7A/P115Δ: KOD N210D (exo(−)) mutant with Y7A and lacking P115,0,0 µM,
KOD I142R/V93K: KOD I142R (exo(−)) mutant with V93K,8,>200 µM,
KOD N210D/V93R: KOD N210D (exo(−)) mutant with V93R,8,>200 µM,
KOD N210D/Y7A: KOD N210D (exo(−)) mutant with Y7A,2,5 µM,
KOD H147E/Y7A: KOD H147E (exo(+)) mutant with Y7A,2,0.5 µM,
KOD I142R/P36H: KOD I142R (exo(−)) mutant with P36H,8,>200 µM,
KOD D141A/E143A/Y7A/P36H: KOD D141A/E143A (exo(−)) mutant with Y7A and P36H,10,>200 µM,
KOD N210D/P36R: KOD N210D (exo(−)) mutant with P36R,8,>200 µM,
KOD H147E/V93Q: KOD H147E (exo(+)) mutant with V93Q,4,100 µM,
KOD N210D/Y7A/P36R: KOD N210D (exo(−)) mutant with Y7A and P36R,10,>200 µM,
KOD H147E/P36H/V93K: KOD H147E (exo(+)) mutant with P36H and V93K,8,>200 µM,
KOD I142R/Y7A: KOD I142R (exo(−)) mutant with Y7A,2,5 µM,
B1,2,0.5 µM,PCR products were confirmed
B2,5,>200 µM,PCR products were confirmed
